# How the values were obtained:
# Format in all cases: functional
# Pasteurella multocida [1] = test: Antibacterial activity against Pasteurella multocida by CLSI M7-A7 broth microdilution method
# Staphylococcus aureus [2] = test: Antibacterial activity against coagulase-negative and oxacillin-resistant Staphylococcus aureus by CLSI M7-A7 broth microdilution method
# Moraxella catarrhalis [3] = test: Antibacterial activity against beta lactamase-positive Moraxella catarrhalis by CLSI M7-A7 broth microdilution method
# Pasteurella multocida [4] = test: Antibacterial activity against Pasteurella multocida assessed as resistant isolates by CLSI M7-A7 broth microdilution method
# Streptococcus pyogenes [5] = test: Antibacterial activity against erythromycin-susceptible Streptococcus pyogenes by CLSI M7-A7 broth microdilution method
# Staphylococcus aureus [6] = test: Antibacterial activity against methicillin-susceptible Staphylococcus aureus assessed as resistant isolates by CLSI M7-A7 broth microdilution method
# Enterococcus faecalis [7] = test: Antibacterial activity against vancomycin-susceptible Enterococcus faecalis assessed as resistant isolates by CLSI M7-A7 broth microdilution method
# Streptococcus pneumoniae [8] = test: Antibacterial activity against penicillin-susceptible Streptococcus pneumoniae by CLSI M7-A7 broth microdilution method
# Streptococcus pneumoniae [9] = test: Antibacterial activity against penicillin-resistant Streptococcus pneumoniae assessed as susceptible isolates by CLSI M7-A7 broth microdilution method
# Streptococcus viridans [10] = test: Antibacterial activity against penicillin-susceptible Streptococcus viridans assessed as resistant isolates by CLSI M7-A7 broth microdilution method
# Streptococcus pneumoniae [11] = test: Antibacterial activity against penicillin-susceptible Streptococcus pneumoniae assessed as susceptible isolates by CLSI M7-A7 broth microdilution method
# Streptococcus viridans [12] = test: Antibacterial activity against penicillin-susceptible Streptococcus viridans assessed as susceptible isolates by CLSI M7-A7 broth microdilution method
# Streptococcus agalactiae [13] = test: Antibacterial activity against erythromycin-susceptible Streptococcus agalactiae assessed as susceptible isolates by CLSI M7-A7 broth microdilution method
# Enterococcus faecium [14] = test: Antibacterial activity against vancomycin-resistant Enterococcus faecium by CLSI M7-A7 broth microdilution method
# Staphylococcus aureus [15] = test: Antibacterial activity against methicillin-susceptible Staphylococcus aureus assessed as susceptible isolates by CLSI M7-A7 broth microdilution method
# Staphylococcus aureus [16] = test: Antibacterial activity against coagulase-negative and oxacillin-susceptible Staphylococcus aureus assessed as susceptible isolates by CLSI M7-A7 broth microdilution method
# Streptococcus viridans [17] = test: Antibacterial activity against penicillin-nonsusceptible Streptococcus viridans assessed as susceptible isolates by CLSI M7-A7 broth microdilution method
# Staphylococcus aureus [18] = test: Antibacterial activity against coagulase-negative and oxacillin-resistant Staphylococcus aureus assessed as susceptible isolates by CLSI M7-A7 broth microdilution method
# Enterococcus faecium [19] = test: Antibacterial activity against vancomycin-resistant Enterococcus faecium assessed as susceptible isolates by CLSI M7-A7 broth microdilution method
# Staphylococcus aureus [20] = test: Antibacterial activity against methicillin-resistant Staphylococcus aureus assessed as resistant isolates by CLSI M7-A7 broth microdilution method
# Streptococcus pyogenes [21] = test: Antibacterial activity against erythromycin-nonsusceptible Streptococcus pyogenes by CLSI M7-A7 broth microdilution method
# Streptococcus agalactiae [22] = test: Antibacterial activity against erythromycin-nonsusceptible Streptococcus agalactiae assessed as susceptible isolates by CLSI M7-A7 broth microdilution method
# Streptococcus agalactiae [23] = test: Antibacterial activity against erythromycin-susceptible Streptococcus agalactiae by CLSI M7-A7 broth microdilution method
# Enterococcus faecalis [24] = test: Antibacterial activity against vancomycin-susceptible Enterococcus faecalis by CLSI M7-A7 broth microdilution method
# Streptococcus agalactiae [25] = test: Antibacterial activity against erythromycin-nonsusceptible Streptococcus agalactiae assessed as resistant isolates by CLSI M7-A7 broth microdilution method
# Streptococcus pneumoniae [26] = test: Antibacterial activity against penicillin-resistant Streptococcus pneumoniae by CLSI M7-A7 broth microdilution method
# Streptococcus pyogenes [27] = test: Antibacterial activity against erythromycin-nonsusceptible Streptococcus pyogenes assessed as resistant isolates by CLSI M7-A7 broth microdilution method
# Streptococcus agalactiae [28] = test: Antibacterial activity against erythromycin-nonsusceptible Streptococcus agalactiae by CLSI M7-A7 broth microdilution method
# Staphylococcus aureus [29] = test: Antibacterial activity against methicillin-susceptible Staphylococcus aureus by CLSI M7-A7 broth microdilution method
# Enterococcus faecalis [30] = test: Antibacterial activity against vancomycin-resistant Enterococcus faecalis assessed as resistant isolates by CLSI M7-A7 broth microdilution method
# Enterococcus faecalis [31] = test: Antibacterial activity against vancomycin-resistant Enterococcus faecalis by CLSI M7-A7 broth microdilution method
# Streptococcus pneumoniae [32] = test: Antibacterial activity against penicillin-susceptible Streptococcus pneumoniae assessed as resistant isolates by CLSI M7-A7 broth microdilution method
# Moraxella catarrhalis [33] = test: Antibacterial activity against beta lactamase-positive Moraxella catarrhalis assessed as susceptible isolates by CLSI M7-A7 broth microdilution method
# Staphylococcus aureus [34] = test: Antibacterial activity against methicillin-resistant Staphylococcus aureus assessed as susceptible isolates by CLSI M7-A7 broth microdilution method
# Pasteurella multocida [35] = test: Antibacterial activity against Pasteurella multocida assessed as susceptible isolates by CLSI M7-A7 broth microdilution method
# Streptococcus viridans [36] = test: Antibacterial activity against penicillin-nonsusceptible Streptococcus viridans assessed as resistant isolates by CLSI M7-A7 broth microdilution method
# Moraxella catarrhalis [37] = test: Antibacterial activity against beta lactamase-positive Moraxella catarrhalis assessed as resistant isolates by CLSI M7-A7 broth microdilution method
# Staphylococcus aureus [38] = test: Antibacterial activity against methicillin-resistant Staphylococcus aureus by CLSI M7-A7 broth microdilution method
# Staphylococcus aureus [39] = test: Antibacterial activity against coagulase-negative and oxacillin-susceptible Staphylococcus aureus assessed as resistant isolates by CLSI M7-A7 broth microdilution method
# Streptococcus viridans [40] = test: Antibacterial activity against penicillin-susceptible Streptococcus viridans by CLSI M7-A7 broth microdilution method
# Streptococcus pneumoniae [41] = test: Antibacterial activity against penicillin-resistant Streptococcus pneumoniae assessed as resistant isolates by CLSI M7-A7 broth microdilution method
# Enterococcus faecium [42] = test: Antibacterial activity against vancomycin-resistant Enterococcus faecium assessed as resistant isolates by CLSI M7-A7 broth microdilution method
# Staphylococcus aureus [43] = test: Antibacterial activity against coagulase-negative and oxacillin-susceptible Staphylococcus aureus by CLSI M7-A7 broth microdilution method
# Enterococcus faecalis [44] = test: Antibacterial activity against vancomycin-resistant Enterococcus faecalis assessed as susceptible isolates by CLSI M7-A7 broth microdilution method
# Staphylococcus aureus [45] = test: Antibacterial activity against coagulase-negative and oxacillin-resistant Staphylococcus aureus assessed as resistant isolates by CLSI M7-A7 broth microdilution method
# Streptococcus pyogenes [46] = test: Antibacterial activity against erythromycin-nonsusceptible Streptococcus pyogenes assessed as susceptible isolates by CLSI M7-A7 broth microdilution method
# Enterococcus faecalis [47] = test: Antibacterial activity against vancomycin-susceptible Enterococcus faecalis assessed as susceptible isolates by CLSI M7-A7 broth microdilution method
# Streptococcus pyogenes [48] = test: Antibacterial activity against erythromycin-susceptible Streptococcus pyogenes assessed as susceptible isolates by CLSI M7-A7 broth microdilution method
# Streptococcus viridans [49] = test: Antibacterial activity against penicillin-nonsusceptible Streptococcus viridans by CLSI M7-A7 broth microdilution method
compound,measurement,setting,value
CC[C@H]1OC(=O)[C@H](C)[C@@H](O[C@H]2C[C@@](C)(OC)[C@@H](O)[C@H](C)O2)[C@H](C)[C@@H](O[C@@H]2O[C@H](C)C[C@H](N(C)C)[C@H]2O)[C@](C)(O)C[C@@H](C)C(=O)[C@H](C)[C@@H](O)[C@]1(C)O [ERYTHROMYCIN],MIC50,Pasteurella multocida [1],2 µg/mL
same,MIC90,Pasteurella multocida [1],4 µg/mL
same,MIC50,Staphylococcus aureus [2],> 8 µg/mL
same,MIC,Moraxella catarrhalis [3],≤ 0.12 µg/mL
same,MIC50,Moraxella catarrhalis [3],≤ 0.12 µg/mL
same,MIC90,Moraxella catarrhalis [3],≤ 0.12 µg/mL
same,Activity,Pasteurella multocida [4],77.3%
same,MIC50,Streptococcus pyogenes [5],0.03 µg/mL
same,MIC90,Streptococcus pyogenes [5],0.06 µg/mL
same,Activity,Staphylococcus aureus [6],32.5%
same,Activity,Enterococcus faecalis [7],59.9%
same,MIC50,Streptococcus pneumoniae [8],0.03 µg/mL
same,MIC90,Streptococcus pneumoniae [8],0.5 µg/mL
same,Activity,Streptococcus pneumoniae [9],28.4%
same,Activity,Streptococcus viridans [10],40.2%
same,Activity,Streptococcus pneumoniae [11],89.1%
same,Activity,Streptococcus viridans [12],58.6%
same,Activity,Streptococcus agalactiae [13],100%
same,MIC50,Enterococcus faecium [14],> 8 µg/mL
same,MIC90,Enterococcus faecium [14],> 8 µg/mL
same,Activity,Staphylococcus aureus [15],65.2%
same,Activity,Staphylococcus aureus [16],49.8%
same,Activity,Streptococcus viridans [17],21.4%
same,Activity,Staphylococcus aureus [18],18.4%
same,Activity,Enterococcus faecium [19],0%
same,Activity,Staphylococcus aureus [20],94.4%
same,MIC50,Streptococcus pyogenes [21],8 µg/mL
same,MIC90,Streptococcus pyogenes [21],> 16 µg/mL
same,Activity,Streptococcus agalactiae [22],0%
same,MIC50,Streptococcus agalactiae [23],0.03 µg/mL
same,MIC90,Streptococcus agalactiae [23],0.06 µg/mL
same,MIC50,Enterococcus faecalis [24],> 8 µg/mL
same,MIC90,Enterococcus faecalis [24],> 8 µg/mL
same,Activity,Streptococcus agalactiae [25],92.9%
same,MIC50,Streptococcus pneumoniae [26],8 µg/mL
same,MIC90,Streptococcus pneumoniae [26],> 16 µg/mL
same,Activity,Streptococcus pyogenes [27],80%
same,MIC50,Streptococcus agalactiae [28],16 µg/mL
same,MIC90,Streptococcus agalactiae [28],> 16 µg/mL
same,MIC50,Staphylococcus aureus [29],0.5 µg/mL
same,MIC90,Staphylococcus aureus [29],> 8 µg/mL
same,Activity,Enterococcus faecalis [30],96%
same,MIC,Enterococcus faecalis [31],> 1 µg/mL
same,Activity,Streptococcus pneumoniae [32],9.9%
same,Activity,Moraxella catarrhalis [33],100%
same,Activity,Staphylococcus aureus [34],4.5%
same,Activity,Pasteurella multocida [35],4.5%
same,Activity,Streptococcus viridans [36],71.4%
same,Activity,Moraxella catarrhalis [37],0%
same,MIC50,Staphylococcus aureus [38],> 8 µg/mL
same,Activity,Staphylococcus aureus [39],49.3%
same,MIC50,Streptococcus viridans [40],0.06 µg/mL
same,MIC90,Streptococcus viridans [40],4 µg/mL
same,Activity,Streptococcus pneumoniae [41],71.6%
same,Activity,Enterococcus faecium [42],92.3%
same,MIC50,Staphylococcus aureus [43],1 µg/mL
same,MIC90,Staphylococcus aureus [43],> 8 µg/mL
same,Activity,Enterococcus faecalis [44],0%
same,Activity,Staphylococcus aureus [45],81.3%
same,Activity,Streptococcus pyogenes [46],0%
same,Activity,Enterococcus faecalis [47],10.2%
same,Activity,Streptococcus pyogenes [48],100%
same,MIC50,Streptococcus viridans [49],2 µg/mL
same,MIC90,Streptococcus viridans [49],> 16 µg/mL
